Reference: patent US7576094B2, “Spiro derivatives as lipoxygenase inhibitors” (Eli Lilly and Company, priority 2004, dated 2009)
pEC50, pIC50: −log10 of the molar value.

Tests used:
[1] = biological target: T1, porcine leukocyte 12/15-Lipoxygenase (Sus scrofa, UniProt P16469); assay: 12/15-Lipoxygenase Enzyme Assay; format: biochemical; details: 70 μM arachidonic acid, 10 minute incubation at room temperature, FOX reagent, absorbance at 620 nm; read-out: inhibition of 12/15-Lipoxygenase with an IC50
T1 sequence (P16469 1-663): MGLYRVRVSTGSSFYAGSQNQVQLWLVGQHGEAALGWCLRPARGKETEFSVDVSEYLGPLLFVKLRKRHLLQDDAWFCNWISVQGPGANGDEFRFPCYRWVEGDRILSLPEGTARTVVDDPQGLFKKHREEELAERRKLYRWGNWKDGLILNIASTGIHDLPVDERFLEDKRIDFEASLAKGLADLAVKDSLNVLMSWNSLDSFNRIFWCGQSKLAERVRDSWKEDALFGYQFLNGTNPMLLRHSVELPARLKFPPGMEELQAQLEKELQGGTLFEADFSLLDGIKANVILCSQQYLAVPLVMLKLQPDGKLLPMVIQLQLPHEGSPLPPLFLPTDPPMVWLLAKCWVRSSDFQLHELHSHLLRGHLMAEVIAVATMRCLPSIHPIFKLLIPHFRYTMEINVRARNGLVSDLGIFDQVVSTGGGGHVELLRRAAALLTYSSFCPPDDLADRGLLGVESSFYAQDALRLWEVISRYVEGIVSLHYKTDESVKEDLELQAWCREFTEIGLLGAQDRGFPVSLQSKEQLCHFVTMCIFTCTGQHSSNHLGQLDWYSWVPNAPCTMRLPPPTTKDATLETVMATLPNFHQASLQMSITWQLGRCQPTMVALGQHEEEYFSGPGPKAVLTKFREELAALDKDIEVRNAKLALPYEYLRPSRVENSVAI
From the text: This procedure was used for measuring the enzymatic activity of porcine leukocyte 12/15-Lipoxygenase using a […] method based on the ferric oxidation of xylenol orange.
• 96 well flat bottom microfilter plates (VWR, Catalog # 62402-933 9295) • Lipoxygenase screening assay buffer (Cayman, Catalog # 760710) • Porcine leukocyte 12/15-Lipoxygenase (Cayman, Catalog # 60300) • Arachidonic Acid (Sigma, Catalog # A3555) • Xylenol orange tetrasodium salt (Aldrich, Catalog # 227854) • Iron (II) sulfate heptahydrate (Sigma, Catalog # F7002) • Sulfuric acid (95-98%) [18M] • Methanol Procedure
Porcine Leukocyte 12/15-Lipoxygenase (Cayman Cat # 60300) was used in this assay. Test compound and/or vehicle was added to 1.3 μL 12/15-Lipoxygenase in 50 mM Tris-HCl buffer, pH 7.4. The reaction was initiated by addition of 70 μM arachidonic acid in Tris-HCl buffer, pH 7.4, and terminated after a 10 minute incubation at room temperature by addition of FOX reagent (25 mM sulfuric acid, 100 μM xylenol orange, 100 μM iron (II) sulfate, methanol:water 9:1). The yellow color of acidified xylenol orange was converted to a blue color by the lipid hydroperoxide-mediated oxidation of Fe^2+ ions and the interaction of the resulting Fe^3+ ions with the dye. The complex was allowed to form during a 1 hour incubation at room temperature with shaking. Absorbance of the Fe^3+ complex was then measured at […] using a spectrophotometer.
Negative controls contained enzyme during the incubation step but substrate was not added until after the FOX reagent. Compounds are screened at 5 concentrations in triplicate starting at 10 μM

[2] = biological target: T2, human recombinant 5-Lipoxygenase (Homo sapiens, UniProt P09917); assay: 5-Lipoxygenase Enzyme Assay; format: biochemical; details: 70 μM arachidonic acid, 10 minute incubation at room temperature, FOX reagent, absorbance at 620 nm; read-out: inhibition of 5-Lipoxygenase with an IC50
T2 sequence (P09917 1-674): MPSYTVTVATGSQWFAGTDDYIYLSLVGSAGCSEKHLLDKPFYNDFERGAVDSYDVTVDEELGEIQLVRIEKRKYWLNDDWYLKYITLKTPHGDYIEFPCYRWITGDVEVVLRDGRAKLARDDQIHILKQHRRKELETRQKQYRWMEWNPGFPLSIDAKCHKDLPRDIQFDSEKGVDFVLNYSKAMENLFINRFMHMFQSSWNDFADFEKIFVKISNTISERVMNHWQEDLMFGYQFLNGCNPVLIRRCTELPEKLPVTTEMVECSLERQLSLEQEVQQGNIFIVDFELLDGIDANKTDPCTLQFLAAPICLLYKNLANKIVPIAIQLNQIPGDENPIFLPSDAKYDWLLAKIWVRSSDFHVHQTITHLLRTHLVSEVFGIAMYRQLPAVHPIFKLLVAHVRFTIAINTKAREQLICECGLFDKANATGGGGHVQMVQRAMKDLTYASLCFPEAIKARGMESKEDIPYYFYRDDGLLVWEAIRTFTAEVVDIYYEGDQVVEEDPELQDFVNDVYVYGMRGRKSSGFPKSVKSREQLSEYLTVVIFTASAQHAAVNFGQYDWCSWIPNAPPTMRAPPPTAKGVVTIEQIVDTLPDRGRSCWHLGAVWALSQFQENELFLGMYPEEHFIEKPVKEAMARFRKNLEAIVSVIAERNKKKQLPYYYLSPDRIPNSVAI
Summary of the method: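 Recombinant human 5-LOX in 50 mM Tris-HCl pH 7.4 was preincubated with compound, then 70 μM arachidonic acid was added for 10 min at room temperature. Hydroperoxide was read by FOX reagent (ferric xylenol orange, 1 h complex formation) as absorbance at 620 nm. Five concentrations in triplicate were tested, starting at 10 μM.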

[3] = tested on: release of the leukotriene LTB4 from a neutrophil cell line (MPRO cell line); assay: LTB4-Cell Assay; format: cell-based; details: Mus musculus, 1 h, read-out: inhibition of LTB4 with an EC50
From the text: • This procedure was used for measuring the release of the leukotriene LTB4 from a neutrophil cell line using a competitive ELISA technique. Materials and Equipments Materials for Cell Preparation and Experiment • MPRO cell line (ATCC, Catalog # CRL-11422) • Calcium ionophore (A23187) (Sigma, Catalog # C7522) • Nordihydroguaiaretic acid (NDGA) (BioMol ,Catalog # EI101-0001) • Retinoic Acid (all-trans) (ATRA) (Sigma, Catalog # 95152) • Sterile, tissue-culture treated 96-well plates (Corning, Catalog # 3614) Materials for LTB4 ELISA • Precoated (Mouse Anti-Rabbit IgG) EIA 96 Well Strip Plates (Cayman, Catalog # 400004) • Leukotriene B4 AChE Tracer (Cayman Catalog # 420110) • Leukotriene B4 EIA Antiserum (Cayman Catalog # 420112) • Ellman's Reagent (Cayman Catalog # 400050) • EIA Buffer Concentrate (10×) (Cayman Catalog # 400060) • Wash Buffer Concentrate (400×) (Cayman Catalog # 400062) • Plastic plate covers (Cayman Catalog # 400012) Procedure
A mouse promyelocytic cell line (MPRO) was used in this assay. These cells are committed immature neutrophils that can be differentiated into mature neutrophils by treatment with 10 μM all-trans retinoic acid for 72 hours.
Following 72 hours of differentiation, cells were stimulated with 1 μM of a calcium ionophore (A23187) in the presence or absence of test compound or vehicle for 1 hour at 37° C. After this time, supernatant was removed from the cells and the LTB4 levels were determined following manufacturer's instructions, using a Leukotriene B4 EIA kit from Cayman (Cat # 5201 11). The negative controls were media samples from differentiated but un-stimulated cells. The compounds were screened at 5 concentrations in quadruplicate starting at 10 μM.

[4] = tested on: LTB4 production in human whole blood; assay: Inhibition of LTB4 Production in Blood; format: cell-based; details: 1 h, 20 μM A23187, 60 minutes at 37° C., LTB4 in plasma by ELISA, read-out: protection against LTB4 at an EC50
Summary of the method: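 Citrated human whole blood preincubated 15 min at 37 °C with compound (top final 30 μM, 1:3 dilutions, quadruplicate), then stimulated with 20 μM A23187 for 60 min at 37 °C. Plasma LTB4 quantified by ELISA; IC50 from percent inhibition versus vehicle.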

Question: `Cc1c(O)cc2c(c1C)N(c1ccc(Cl)cc1)CC1(CCC1)C2O` (stereo not drawn) [1′-(4-chlorophenyl)-7′,8′-dimethyl-2′,4′-dihydro-1′H-spiro[cyclobutane-1,3′-quinoline]-4′,6′-diol] was tested. Which pIC50 [1] did it give?
Answer: > 5.30

Question: How did the pIC50 [1] turn out when `Cc1c(O)cc2c(c1C)N(c1ccc(F)cc1)CC1(CCC1)C2` [1′-(4-fluorophenyl)-7′,8′-dimethyl-2′,4′-dihydro-1′H-spiro[cyclobutane-1,3′-quinolin]-6′-ol] was run?
Answer: > 5.30

Question: How did the pIC50 [1] turn out when `Cc1c(O)cc2c(c1C)N(c1cccc(O)c1)CC1(CCC1)C2` [1′-(3-hydroxyphenyl)-7′,8′-dimethyl-2′,4′-dihydro-1′H-spiro[cyclobutane-1,3′-quinolin]-6′-ol] was run?
Answer: > 5.30

Question: What about the pIC50 [2] of the same molecule?
Answer: > 6.52

Question: How did the pIC50 [1] turn out when `COc1ccc(N2CC3(CCC3)Cc3cc(O)c(C)c(C)c32)cc1` [1′-(4-methoxyphenyl)-7′,8′-dimethyl-2′,4′-dihydro-1′H-spiro[cyclobutane-1,3′-quinolin]-6′-ol] was run?
Answer: > 5.30

Question: How did the pIC50 [1] turn out when `COc1c(C(C)(C)C)cc2c(c1C)CC1(CCC1)CN2c1ccc(O)cn1` [6-(7′-tert-butyl-6′-methoxy-5′-methyl-2′,4′-dihydro-1′H-spiro[cyclobutane-1,3′-quinoline]-1′-yl)pyridin-3-ol] was run?
Answer: > 5.30

Question: How did the pIC50 [1] turn out when `Cc1c(O)c(-c2cc3ccccc3o2)c(C)c2c1CCC(C)(C)O2` [7-(1-benzofuran-2-yl)-2,2,5,8-tetramethylchroman-6-ol] was run?
Answer: > 5.30

Question: `Cc1c(C)c2c(c(C)c1OC(=O)CN1CCN(C)CC1)CCC1(CCC1)O2` [5,7,8-trimethyl-3,4-dihydrospiro[chromene-2,1′-cyclobutan]-6-yl-2-(4-methylpiperazin-1-yl)acetate] was tested. Which pIC50 [1] did it give?
Answer: > 5.30

Question: What does the source list for `COCC1=Cc2c(C)c(O)c(C)c(C)c2OC12CCC2` [3-(methoxymethyl)-5,7,8-trimethylspiro[chromene-2,1′-cyclobutan]-6-ol]?
Answer: pEC50 [3]: > 5.30; pEC50 [4]: > 5.00; pIC50 [2]: > 6.52

Question: `CCOC1CC2(CCC2)Oc2cc(C)c(O)c(C)c21` (stereo not drawn) [4-ethoxy-5,7-dimethyl-3,4-dihydrospiro[chromene-2,1′-cyclobutan]-6-ol] was tested. Which pEC50 [3] did it give?
Answer: > 5.30

Question: And the pEC50 [4]?
Answer: > 5.00

Question: What about the pIC50 [2] of the same molecule?
Answer: > 6.52

Question: With `Cc1c(C)c2c(c(C)c1O)C=C(CO)C1(CCC1)O2` [3-(hydroxymethyl)-5,7,8-trimethylspiro[chromene-2,1′-cyclobutan]-6-ol] as the molecule, how does the pEC50 [3] read?
Answer: > 5.30

Question: And the pEC50 [4]?
Answer: > 5.00

Question: What about the pIC50 [2] of the same molecule?
Answer: > 6.52

Question: How did the pIC50 [1] turn out when `CCN1CC2(CCC2)Cc2cc(O)c(C)c(C)c21` [1′-ethyl-7′,8′-dimethyl-2′,4′-dihydro-1′H-spiro[cyclobutane-1,3′-quinolin]-6′-ol] was run?
Answer: > 5.30

Question: Which results are given for `Cc1c(C)c2c(c(C)c1O)C(C#N)CC1(CCC1)O2` (stereo not drawn) [6-hydroxy-5,7,8-trimethyl-3,4-dihydrospiro[chromene-2,1′-cyclobutane]-4-carbonitrile]?
Answer: pEC50 [3]: > 5.30; pEC50 [4]: > 5.00; pIC50 [2]: > 6.52

Question: How did the pEC50 [3] turn out when `Cc1c(O)cc2c(c1C)OCC1(CC1)C2` [7,8-dimethylspiro[chroman-3,1′-cyclopropan]-6-ol] was run?
Answer: > 5.30

Question: And the pEC50 [4]?
Answer: > 5.00

Question: And the pIC50 [2]?
Answer: > 6.52

Question: Which results are given for `CCO/N=C1\CC2(CCC2)Sc2cc(C)c(O)c(C)c21` [6′-hydroxy-5′,7′-dimethylspiro[cyclobutane-1,2′-thiochromen]-4′(3′H)-one O-ethyloxime]?
Answer: pEC50 [3]: > 5.30; pEC50 [4]: > 5.00; pIC50 [2]: > 6.52

Question: How did the pEC50 [3] turn out when `CCCCc1cc(-c2c(C)c(O)c(C)c3c2OC2(CCC2)CC3)no1` [5,7-dimethyl-8-(5-butyl-isoxazol-3-yl)-3,4-dihydrospiro[chromene-2,1′-cyclobutan]-6-ol] was run?
Answer: > 5.30

Question: What about the pEC50 [4] of the same molecule?
Answer: > 5.00

Question: And the pIC50 [2]?
Answer: > 6.52

Question: `Cc1c(O)c(CCc2ccc3ccccc3n2)c(C)c2c1CCC1(CCC1)O2` [5,8-dimethyl-7-(2-(quinolin-2-yl)ethyl)spiro[chroman-2,1′-cyclobutan]-6-ol] was tested. Which pIC50 [1] did it give?
Answer: > 5.30

Question: `Cc1ccc(N2CC3(CCC3)Cc3cc(O)c(C)c(C)c32)cc1` [7′,8′-dimethyl-1′-p-tolyl-2′,4′-dihydro-1′H-spiro[cyclobutane-1,3′-quinolin]-6′-ol] was tested. Which pIC50 [1] did it give?
Answer: > 5.30

Question: And the pIC50 [2]?
Answer: > 6.52

Question: How did the pIC50 [1] turn out when `Cc1c(O)c(C(C)(C)C)cc2c1CC1(CCC1)CN2c1ccc(O)cn1` [7′-tert-butyl-1′-(5-hydroxypyridin-2-yl)-5′-methyl-2′,4′-dihydro-1′H-spiro[cyclobutane-1,3′-quinolin]-6′-ol] was run?
Answer: > 5.30

Question: `CC(C)c1cc2c(c(C(C)C)c1O)CCC1(CCC1)O2` [5,7-diisopropyl-3,4-dihydrospiro[chromene-2,1′-cyclobutan]-6-ol] was tested. Which pEC50 [3] did it give?
Answer: > 5.30

Question: What about the pEC50 [4] of the same molecule?
Answer: > 5.00

Question: What about the pIC50 [2] of the same molecule?
Answer: > 6.52

Question: What does the source list for `Cc1c(O)cc2c(c1C)OCC1(CCC1)C2` [7,8-dimethylspiro[chroman-3,1′-cyclobutan]-6-ol]?
Answer: pEC50 [3]: > 5.30; pEC50 [4]: > 5.00; pIC50 [2]: > 6.52

Question: Which results are given for `COc1cc2c(c(C)c1C)N(c1ccc(O)cc1)CC1(CCC1)C2` [4-(6′-methoxy-7′,8′-dimethyl-2′,4′-dihydro-1′H-spiro[cyclobutane-1,3′-quinoline]-1′-yl)phenol]?
Answer: pIC50 [1]: > 5.30; pIC50 [2]: > 6.52
